“And” between values parts separate entries of the source, which are not always exact repeats. Equal values may be shown once. Read-outs that look alike come from different tables or passages of the source.
Legend:
HepaRG cells [1] = assay: Neutral lipids with Nile red in HepaRG cells; conditions: 4 days, selected concentrations (ATP loss < 30%, not above 100 × Cmax), vs control
Description: (§1) Briefly, HepaRG cells were seeded in 96-well plates at a density of 2.6 × 10^4 cells/cm^2 and were first incubated in William’s E medium supplemented with 10% FBS (50% FBS from Eurobio and 50% FBS from GE Healthcare), 100 U/mL penicillin, 100 μg/mL streptomycin, 2 mM glutamine, 5 μg/mL insulin, and 50 μM hydrocortisone hemisuccinate. […] During this 1-month period, the culture medium was renewed three times a week. […] HepaRG cells were next cultured in the same FBS/DMSO conditions and incubated for 4 days with each drug at different concentrations. Culture medium was renewed every day and all investigations were performed after 96 h (i.e., 24 h after the fourth treatment). These investigations were mostly performed in 96-well plates except for western blot analysis, for which 6-well plates were used. Experiments were carried out on passages 9 to 16. All drugs (except DPEN), etomoxir, lomitapide, tunicamycin, thapsigargin, and TUDCA were dissolved in DMSO. DPEN was dissolved in water.
(§2) Cells were then incubated with PBS containing 0.1 μg/mL Nile red for 30 min and washed once. […] For each well, four pictures were taken at a magnification of × 20 and analyzed with Columbus software (PerkinElmer) for quantification. These pictures were always taken in four different areas around the center of each well, and these areas were the same from one well to another, as programmed by the Columbus software. This software was also designed to count only living cells after exclusion of dying cells harboring nuclei with abnormal shape or altered Hoechst intensity. […] Neutral lipids were then normalized per number of nuclei and expressed relative to control cells. Examples of images used for neutral lipid quantification are shown in Supplementary Fig. 2.

[2] = tested on: stearoyl-CoA desaturase 1 (hSCD1); assay: RT-qPCR hSCD1 mRNA in HepaRG cells; type: cell-based, human; conditions: 4 days, vs control
Description: (§3) Total RNA was extracted with the Nucleospin RNA isolation system purchased from Macherey-Nagel (Düren, Germany), which included a DNase treatment step. Quantification of isolated RNAs was assessed using a Nanodrop 1000 (Thermo Fisher Scientific, Waltham, MA). RNAs were reverse-transcribed into cDNAs using the High-Capacity cDNA Reverse Transcription Kit purchased from Applied Biosystems (Woolston, UK). Gene expression was assessed by real-time quantitative PCR analysis (RT-qPCR) using SYBR Green PCR Master Mix (Applied Biosystems) and a 384-well QuantStudio™ 7 Flex Real-Time PCR System (Thermo Fisher Scientific). Sequences of the primers used to measure gene expression are presented in Supplementary Table 3. Expression of GAPDH was chosen as reference and the 2^−ΔΔCt calculation method was used to express the relative expression of each selected gene.

[3] = tested on: de novo lipogenesis (DNL); assay: DNL from [2-14C]acetic acid in HepaRG cells; type: cell-based, human; conditions: 4 days, vs control
Description: (§4) Experiments were carried out on passages 9 to 16. […] DPEN was dissolved in water.
DNL was assessed by measuring newly synthesized radiolabeled lipids from [2-^14C]acetic acid, using a protocol adapted from Byrne et al. ([2014]). Briefly, culture medium was removed and cells were washed with warm PBS. Next, cells were incubated for 3 h with phenol red-free William’s E medium containing 1% fatty acid-free BSA, [2-^14C]acetic acid (1850 Bq per well, corresponding to 19.4 pM) and 50 μM cold acetic acid. Medium was then gently removed and cells were washed with warm PBS before adding a mix of hexane/isopropanol (3:2; v/v). Cell culture plates were sealed and incubated for 1 h at room temperature for lipid extraction. After transfer of the plate content in 200-μL microtubes, hexane and PBS were added to have a hexane/isopropanol/PBS ratio of 6:2:3 (v/v/v). Microtubes were then centrifuged at 1000×g for 5 min and radiolabeled lipids were counted in the upper phase with a Tri-Carb 4910TR liquid scintillation counter (PerkinElmer). Results were normalized to total protein content and expressed in comparison to control cells.

ATP citrate lyase (ACLY) = assay: RT-qPCR ACLY mRNA in HepaRG cells; type: cell-based, human; conditions: 4 days, vs control
Description: as §3

[4] = Maximum plasma concentration (Cmax) in patients; type: in vivo, human
[5] = tested on: mitochondrial fatty acid oxidation (mtFAO); assay: mtFAO with [U-14C]palmitic acid in HepaRG cells; type: cell-based, human; conditions: 4 days, vs control
Description: as §4
Results were normalized to total protein content determined using the Pierce BCA assay kit from Thermo Fischer Scientific (Waltham, MA). Results were expressed in comparison to control cells.

HepaRG cells [6] = assay: Cellular ATP level (CellTiter-Glo) in HepaRG cells; type: cell-based, human; conditions: 4 days, vs controls
Description: Cellular ATP level was measured using the CellTiter-Glo® Luminescent Cell Viability assay purchased from Promega (Charbonnières, France), according to the manufacturer’s instructions. Briefly, control and treated HepaRG cells were first washed with warm PBS and kept for 30 min at room temperature in phenol red-free William’s E medium. Cells were next incubated with the CellTiter-Glo® reagent for 10 min at room temperature. Cells were then transferred in opaque-walled multiwell plates and the luminescent signal was quantified using a POLARstar Omega microplate reader (BMG Labtech, Ortenberg, Germany). Results were expressed in comparison to control cells.

[7] = treated patients, cited from earlier work
apoB secretion = assay: apoB level in culture medium (ELISA), HepaRG cells; type: cell-based, human; conditions: 4 days; for Effect on apoB secretion: culture medium, vs control
Description: as §4
Twenty-four hours after the last treatment, cell supernatants were removed and stored at − 80 °C until use for apolipoprotein measurement. ApoB level was measured using the Human Apolipoprotein B ELISA^pro kit from Mabtech (Nacka Strand, Sweden), according to the manufacturer’s instructions. Briefly, 50 μL of samples were diluted 2× in Apo ELISA buffer before a 2-h incubation in the precoated strip plates provided in the kit. The plates were washed and incubated 1 h with the biotinylated monoclonal anti-human apoB (LDL-11-biotin) antibody. The plates were then washed and incubated 1 h with a streptavidin–horseradish peroxidase conjugated antibody. After another washing, 3,3′,5,5′-tetramethylbenzidine (TMB) was used as substrate for 15 min before adding a stop solution. Absorbance at 450 nm was then measured using a POLARstar Omega microplate reader (BMG Labtech, Ortenberg). ApoB level was calculated utilizing a four-parameter standard curve, and normalized to the total cellular protein content and expressed in comparison to control cells.

[8] = tested on: fatty acid translocase (FAT, also known as CD36); assay: RT-qPCR FAT/CD36 mRNA in HepaRG cells; type: cell-based, human; conditions: 4 days
Description: as §3

[9] = cited from earlier work; for Cmax: read-out: Maximum plasma concentration (Cmax) in patients
apoC3 secretion = assay: apoC3 level in culture medium (HTRF), HepaRG cells; type: cell-based, human; conditions: 4 days; for Effect on apoC3 secretion: culture medium, vs control
Description: as §1
Apolipoprotein C3 (apoC3) level was measured using the Human Apolipoprotein C3 kit from Cisbio Bioassays (Codolet, France), according to the manufacturer’s instructions. Briefly, 10 μL of supernatants was incubated with two different specific anti-human apoC3 antibodies, one donor and one acceptor. The detection principle of apoC3 is based on HTRF® (Homogeneous Time Resolved Fluorescence), a time-resolved FRET (Förster Resonance Energy Transfer) technology. After 2 h of incubation, light emission was measured with the Infinite F Nano+ microplate reader (Tecan, Männedorf, Switzerland). ApoC3 level was calculated utilizing standard curve, based on the ratio of A665 nm/A615 nm, and normalized to the total cellular protein content. Results were expressed in comparison to control cells.

[10] = tested on: acetyl-CoA carboxylase alpha (ACACA); assay: RT-qPCR ACACA mRNA in HepaRG cells; type: cell-based, human; conditions: 4 days, vs control
Description: as §3

ERN1 (IRE1α) = assay: RT-qPCR ERN1 mRNA in HepaRG cells; type: cell-based, human; conditions: 4 days, vs control
Description: as §3

[11] = tested on: fatty acid synthase (FASN); assay: RT-qPCR FASN mRNA in HepaRG cells; type: cell-based, human; conditions: 4 days, vs control
Description: as §3

[12] = tested on: angiopoietin-like 3 (ANGPTL3); assay: RT-qPCR ANGPTL3 mRNA in HepaRG cells; type: cell-based, human; conditions: 4 days, vs control
Description: as §3

[13] = tested on: microsomal triglyceride transfer protein (MTTP); assay: RT-qPCR MTTP mRNA in HepaRG cells; type: cell-based, human; conditions: 4 days, vs control
Description: as §3

[14] = tested on: apolipoprotein C3 (APOC3); assay: RT-qPCR APOC3 mRNA in HepaRG cells; type: cell-based, human; conditions: 4 days, vs control
Description: as §3

[15] = tested on: primary human hepatocytes (PHH); assay: Neutral lipids with Nile red in primary human hepatocytes; type: cell-based; conditions: 4 days
Description: Primary human hepatocytes (PHH) were purchased from Biopredic International (Saint-Grégoire, France). Cells were seeded by the supplier in coated 96-well plates at a density of 5 × 10^4 cells/well. Upon receipt, culture medium was removed and replaced by William’s E medium supplemented as previously described for HepaRG cell differentiation, except for DMSO set at 1%. After 2–3 days, cells were treated as for HepaRG cells. For HepaRG cells and PHH, cells were always maintained in incubators at 37 °C with 5% CO2 and saturating humidity.
as §2

apolipoprotein B (APOB) = assay: RT-qPCR APOB mRNA in HepaRG cells; type: cell-based, human; conditions: 4 days, vs control
Description: as §3

[16] = high dose chemotherapy, ref Holmboe L et al., Br J Clin Pharmacol. 2012;73(1):106-14
[17] = rheumatoid arthritis treatment, ref Hoekstra M et al., J Rheumatol. 2004;31(4):645-8
[18] = worked out from cited Cmax in patients

Concentration corresponding to 100xCmax [4, 18]	Compound	Accumulation of neutral lipids (steatosis) (HepaRG cells [1])	Effect on DNL [3]	ACLY mRNA level (ATP citrate lyase (ACLY))	Effect on mtFAO [5]	Loss of cellular ATP relative to the maximum concentration selected for the study (HepaRG cells [6])	Effect on apoB secretion (apoB secretion)	Effect on apoC3 secretion (apoC3 secretion)	ERN1 (IRE1α) mRNA level (ERN1 (IRE1α))	Maximum plasma concentration (Cmax) in patients ([9]; patients, ref given per drug)	Cmax ([9]; patients, ref given per drug)	further results
–	CCCCc1oc2ccccc2c1C(=O)c1cc(I)c(OCCN(CC)CC)c(I)c1 [AMIO, amiodarone]	significant accumulation of neutral lipids	increased DNL	enhanced mRNA level	–	–	–	–	–	–	–	hSCD1 mRNA level [2]: enhanced mRNA level
–	CN(Cc1cnc2nc(N)nc(N)c2n1)c1ccc(C(=O)N[C@@H](CCC(=O)O)C(=O)O)cc1 [METHO, methotrexate]	significant accumulation of neutral lipids	curb this metabolic pathway	–	significantly enhance mtFAO	150 µM (loss of cellular ATP below 30% of the controls for this concentration, as shown in Supp. fig 1)	did not reduce	–	–	–	–	Concentration corresponding to 100xCmax ([4]; from Cmax of high dose chemotherapy): 150000 µM; Concentration corresponding to 100xCmax ([4]; from Cmax of rheumatoid arthritis treatment): 130 µM; Therapeutic blood (or plasma) concentration in patients ([7]; ref Schulz M et al., Crit Care 2012 ;16(4):R136, listed as Methotrexate (METHO)): 0.04 mg/L and 0.09 µM; Increase of FAT/CD36 mRNA level ([8]; 50 μM): 60%; Increase of FAT/CD36 mRNA level ([8]; 150 μM): 55%; Maximum plasma concentration (Cmax) in patients [9, 16]: ≤ 680 mg/L; Cmax [9, 16]: ≤ 1500 µM; Maximum plasma concentration (Cmax) in patients [9, 17]: ≤ 0.594 mg/L; Cmax [9, 17]: ≤ 1.3 µM
3200 µM	CC1=C(CC(=O)O)c2cc(F)ccc2/C1=C\c1ccc([S+](C)[O-])cc1 (stereo not shown) [SUL, sulindac]	significant accumulation of neutral lipids	increased DNL	augmented mRNA abundance	–	1000 µM (loss of cellular ATP above 30% of the controls for higher concentrations, as shown in Supp. fig 1)	reduced the secretion	reduced the secretion	enhanced IRE1α mRNA level	≤ 11.4 mg/L	≤ 32 µM	ACACA mRNA level [10]: augmented mRNA abundance; Therapeutic blood (or plasma) concentration in patients ([7]; ref Schulz M et al., Crit Care 2012 ;16(4):R136, listed as Sulindac (SUL)): 1 - 5 mg/L and 2.8 - 14 µM; FASN mRNA level [11]: augmented mRNA abundance
640 µM	Cc1c(C)c2c(c(C)c1O)CCC(C)(COc1ccc(CC3SC(=O)NC3=O)cc1)O2 (stereo not shown) [TRO, troglitazone]	significant accumulation of neutral lipids	curb this metabolic pathway	–	significantly enhance mtFAO	47.5 µM (loss of cellular ATP above 30% of the controls for higher concentrations, as shown in Supp. fig 1)	reduced the secretion	reduced the secretion	enhanced IRE1α mRNA level	≤ 2.83 mg/L	≤ 6.4 µM	Secretion of apoC3 (apoC3 secretion; 45 and 47.5 μM): less than 10 % of the respective control; Therapeutic blood (or plasma) concentration in patients ([7]; ref Loi CM et al., J Clin Pharmacol 1999;39(9):920-6, Plosker GL and Faulds D. Drugs 1999;57(3):409-438, listed as Troglitazone (TRO)): 0.90 - 2.82 mg/L and 2.0 - 6.4 µM; ANGPTL3 mRNA level [12]: nearly abolish the mRNA abundance; MTTP mRNA level [13]: nearly abolish the mRNA abundance; Secretion of apoB (apoB secretion; 45 and 47.5 μM): less than 10 % of the respective control; APOC3 mRNA level [14]: nearly abolish the mRNA abundance; Steatosis in PHH batches (six batches tested) [15]: induced steatosis in only one PHH batch; APOB mRNA level (apolipoprotein B (APOB)): nearly abolish the mRNA abundance
